Laboratory results: patent US20200318195A1, “Bivalent Nucleic Acid Ligands and Uses Therefor” (Carnegie Mellon University, priority 2017, published 2020)

Key:
R11A [1] = assay: Steady-state fluorescent measurements of ligand with R11A; format: binding; conditions: for reduction of emission signals upon the addition of R11A: 0.1x PBS; for fluorescent signals of ligand with R11A in presence of pentamidine: 2.5 uM of pentamidine
Experimental: (§1) FIG. 14. The effects of ligand orientation (LG2P), mismatched R11U and single-stranded targets (WS+CS). Inset: Fluorescent spectra of the corresponding samples after addition of 2.5 μM of pentamidine.
To further corroborate the UV-Vis and CD findings, we measured the fluorescent signals of ligands with and without RNA targets following an excitation at 330 nm (λmax of E-base). We observed a significant fluorescent quenching of LG3 compared to that of LG1 and LG2. Such a drastic reduction in the fluorescent signals could be due to photo-induced electron transfer quenching, which is expected to be most efficient for LG3 since the fluorophore (E) is stacked between two other J-bases. […] With all three ligands, the emission signals were further reduced upon the addition of R11A, but most dramatically with LG2, 60% reduction with LG2 as compared to 35 and 33% with LG1 and LG3, respectively. We observed a similar fluorescent quenching pattern upon the incubation of LG2 with R11U, [WS+CS], HP, and LG2P with R11A (FIG. 14)—although less dramatic as compared to that of LG2 with R11A. […] To test the hypothesis that the nonspecific binding of ligand to RNA can lead to fluorescent quenching, we incubated the respective RNA targets with pentamidine prior to adding LG2 and vice versa.
The samples were prepared in 0.1× PBS buffer. All spectra represent an average of at least fifteen scans collected at 100 nm/min rate between 200 and 375 nm, in a 1-cm path-length cuvette at 25° C. CD spectrum from buffer solution was subtracted from the sample spectra, which were then smoothed via a five-point adjacent averaging algorithm. Steady-State fluorescent measurements. All steady-state fluorescence samples were prepared by mixing ligands with RNA at the indicated concentrations in 0.1× PBS buffer, and annealed by incubation at 90° C. for 5 min followed by a gradual cooling to 37° C. The samples were incubated at 37° C. for 1 hr before the measurements. Steady-state fluorescence data were collected at 25° C. by Cary Eclipse Fluorescence Spectrometer. (εex=330 nm, εem=340-600 nm) with slit size.

HP = assay: Steady-state fluorescent measurements of ligand with HP; format: binding; conditions: excitation at 330 nm
Text: (§2) To further corroborate the UV-Vis and CD findings, we measured the fluorescent signals of ligands with and without RNA targets following an excitation at 330 nm (λmax of E-base). We observed a significant fluorescent quenching of LG3 compared to that of LG1 and LG2. Such a drastic reduction in the fluorescent signals could be due to photo-induced electron transfer quenching, which is expected to be most efficient for LG3 since the fluorophore (E) is stacked between two other J-bases. […] With all three ligands, the emission signals were further reduced upon the addition of R11A, but most dramatically with LG2, 60% reduction with LG2 as compared to 35 and 33% with LG1 and LG3, respectively. We observed a similar fluorescent quenching pattern upon the incubation of LG2 with R11U, [WS+CS], HP, and LG2P with R11A (FIG. 14)—although less dramatic as compared to that of LG2 with R11A. […]
(§3) The samples were prepared in 0.1× PBS buffer. […] All steady-state fluorescence samples were prepared by mixing ligands with RNA at the indicated concentrations in 0.1× PBS buffer, and annealed by incubation at 90° C. for 5 min followed by a gradual cooling to 37° C. […] Steady-state fluorescence data were collected at 25° C. by Cary Eclipse Fluorescence Spectrometer. […]

R11U [2] = assay: Steady-state fluorescent measurements of ligand with R11U; format: binding
Experimental: as §1
as §2, with “respectively.” for “respectively. We observed a similar fluorescent quenching pattern upon the incubation of LG2 with R11U, [WS+CS], HP, and LG2P with R11A (FIG. 14)—although less dramatic as compared to that of LG2 with R11A.”
as §3

[3] = tested on: double-stranded HP containing a single binding-site; assay: CD of ligand with hairpin containing a single binding-site; conditions: 0.1x PBS
Text: (§4) FIG. 13. CD spectra of LG2 with the (A) mismatched R11U, (B) single-stranded WS and CS, and (C) double-stranded HP containing a single binding-site, as well as that of (D) LG2P with R11A. CD spectra of RNAs (line) and that of the [RNA+ligand] mixtures (dash).
(§5) A series of model RNA targets were chosen for binding study (FIG. 11). The R11X series comprised 24 rCXG-repeats (FIG. 11 (A)), which, upon adopting a secondary hairpin structure, provided 11 binding sites for ligands (FIG. 11(B)). R11A contained the perfect-match (A-A), while R11U and R11C contained the respective U—U and C—C mismatches for ligand binding. R11G (X=G) was not ascertained since it has shown to be capable of forming G-quadruplex as well as hairpin structures, which could confound the interpretation of the experimental results. Single-stranded RNA targets, WS (Watson Strand) and CS (Crick Strand), with the LG2 binding-site underlined (FIG. 11 (C)), as well as double-stranded hairpin HP containing a single ligand binding-site (FIG. 11 (D)), were also examined. […]
as §3

[WS+CS] = Steady-state fluorescent measurements of ligand with single strands; format: binding
Experimental: as §1
as §2, with “respectively.” for “respectively. We observed a similar fluorescent quenching pattern upon the incubation of LG2 with R11U, [WS+CS], HP, and LG2P with R11A (FIG. 14)—although less dramatic as compared to that of LG2 with R11A.”
as §3

R11A [4] = assay: NMR titration of ligand with R11A; format: binding; conditions: R11A 0.1 mM, 0.1x PBS
Experimental: FIG. 15. NMR titration of LG2 with R11A. The concentration of R11A was 0.1 mM. Aliquots of LG2 at the indicated molar ratios were added to R11A and incubated at 37° C. for 15 min prior to data acquisition. Solvent-exchangeable protons are indicated by dashed lines, and nonexchangeable protons by vertical solid lines.
To gain insight into the binding mode of LG2, we performed a series of multinuclear and multidimensional NMR experiments with LG2, R11A, and in combination. The samples were prepared in the same 0.1× PBS buffer as before, containing a 9:1 volume ratio of H2O:D2O The NOESY data were collected at 300, 200, and 100 ms mixing times to obtain proton-proton distance, while COSY experiments were performed to map the proton spin-system of each residue. The expectation was that H-bonding interactions between LG2 and R11A would result in line-broadening and downfield chemical shift of the imino proton signals of the canonical G-C/C-G pairs due to base-pair opening, and in an emergence of a new set of imino proton signals due to the formation of H-bonds between ligand and RNA. […] Variable-temperature measurements further supported this chemical shift assignment, showing a gradual decay in peak intensity with increasing temperature while that of the non-exchangeable protons remained fairly constant. Partial assignments of the nucleobase protons were made by NOESY experiments. […]

R11A [5] = assay: CD of ligand with perfect-match rCAG hairpin R11A; format: binding; conditions: 0.1x PBS
Experimental: FIG. 12. CD titration of LG2 with R11A. The concentration of R11A was 0.5 μM and those of LG2 were X: 0, 1.5, 2.5, 3.5, 4.5, 5.5, 6.5, 8.5, and 11.5 μM. After the addition of LG2 to R11A, the mixtures were incubated at 37° C. for 30 min prior to the acquisition of data at 25° C.
as §4
A series of model RNA targets were chosen for binding study (FIG. 11). The R11X series comprised 24 rCXG-repeats (FIG. 11 (A)), which, upon adopting a secondary hairpin structure, provided 11 binding sites for ligands (FIG. 11(B)). R11A contained the perfect-match (A-A), while R11U and R11C contained the respective U—U and C—C mismatches for ligand binding. […]
as §3

R11U [6] = assay: CD of ligand with mismatched R11U; format: binding; conditions: 0.1x PBS
Text: as §4, §5, §3

R11C = assay: CD of ligand with mismatched R11C; format: binding; conditions: 0.1x PBS; data not shown
Text: as §5, with “examined. The samples were prepared by incubating the pre-annealed RNAs with respective ligands in 0.1× PBS buffer (1 mM NaPi, 13.7 mM NaCl, 0.27 mM KCl; pH 7.4) at 37° C.” for “examined.”
as §3

[7] = tested on: single-stranded WS and CS; assay: CD of ligand with single-stranded RNA targets; format: binding; conditions: 0.1x PBS
Text: as §4, §5, §3

Substance: H-IEF-Lys-NH2 [LG3]
- reduction of emission signals upon the addition of R11A (R11A [1]; excitation at 330 nm): 33%

Substance: H-EFI-Lys-NH2 [LG2]
- fluorescent quenching with HP compared to that of LG2 with R11A (HP): less dramatic
- fluorescent signals of ligand with R11A in presence of pentamidine (R11A [1]): remained suppressed
- reduction of emission signals upon the addition of R11A (R11A [1]; excitation at 330 nm): 60%
- fluorescent signals of ligand with R11U in presence of pentamidine (R11U [2]; 2.5 uM of pentamidine): fully recovered
- fluorescent quenching with R11U compared to that of LG2 with R11A (R11U [2]; excitation at 330 nm): less dramatic
- change in CD signals after incubation with HP [3]: no significant differences in the CD signals
- fluorescent signals of ligand with [WS+CS] in presence of pentamidine ([WS+CS]; 2.5 uM of pentamidine): fully recovered
- fluorescent quenching with [WS+CS] compared to that of LG2 with R11A ([WS+CS]; excitation at 330 nm): less dramatic
- new imino proton signals in the 10-20 ppm regimes (H-bond formation between ligand and RNA) (R11A [4]): did not observe any new imino proton signals
- imino proton signal of R11A upon the addition of ligand (R11A [4]; 9:1 H2O:D2O): gradually broadened and downfield-shifted
- differential in CD amplitude with R11A, among the ligand series (R11A [5]; signals at ~270 nm): largest differential in CD amplitude
- change in CD signals after incubation with mismatched R11U (R11U [6]): no significant differences in the CD signals
- change in CD signals after incubation with mismatched R11C (R11C): no significant differences in the CD signals
- change in CD signals after incubation with single-stranded WS and CS [7]: no significant differences in the CD signals

Substance: H-FIE-Lys-NH2 [LG1]
- reduction of emission signals upon the addition of R11A (R11A [1]; excitation at 330 nm): 35%

Substance: H-IPE-Lys-NH2 [LG2P]
- fluorescent signals of ligand with R11A in presence of pentamidine (R11A [1]): fully recovered
- fluorescent quenching with R11A compared to that of LG2 with R11A (R11A [1]; excitation at 330 nm): less dramatic
- change in CD signals after incubation with R11A (R11A [5]): no significant differences in the CD signals
